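Values below derive from 48-hour exposures of cells grown in 96-well plates, with endpoints linearly interpolated between the two concentrations bracketing the appropriate inhibition level. Definition used: TGI = concentration required for complete inhibition of growth.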
What was measured:
Assay in all cases: NCI-60 cell line screen, 48 h
MDA-MB-231 breast = tested on: MDA-MB-231 breast
NCI-H460 lung = tested on: NCI-H460 lung
NCI/ADR-RES ovarian = tested on: NCI/ADR-RES ovarian
SW-620 colon = tested on: SW-620 colon
EKVX NSCLC = tested on: EKVX NSCLC
NCI-H522 lung = tested on: NCI-H522 lung
ACHN renal = tested on: ACHN renal
SR leukemia = tested on: SR leukemia
HS 578T breast = tested on: HS 578T breast
MCF7 breast = tested on: MCF7 breast
MDA-MB-435 = tested on: MDA-MB-435
DLD-1 colon = tested on: DLD-1 colon
MALME-3M melanoma = tested on: MALME-3M melanoma
M19-MEL melanoma = tested on: M19-MEL melanoma
KM20L2 colon = tested on: KM20L2 colon
DMS 273 small cell lung = tested on: DMS 273 small cell lung
LOX IMVI melanoma = tested on: LOX IMVI melanoma
LXFL 529 NSCLC = tested on: LXFL 529 NSCLC
XF 498 CNS = tested on: XF 498 CNS
RXF-631 renal = tested on: RXF-631 renal

Measured: TGI

NC(CCOCCP(=O)(O)CCOCCC(N)C(=O)O)C(=O)O (stereo unspecified)
> 100 µM: MDA-MB-231 breast | NCI-H460 lung | NCI/ADR-RES ovarian | SW-620 colon | EKVX NSCLC | NCI-H522 lung | ACHN renal | SR leukemia | HS 578T breast | MCF7 breast | MDA-MB-435

O=C1OCc2cccc3c2-c2c1cccc2C(=O)OC3
> 100 µM: DLD-1 colon | MALME-3M melanoma | M19-MEL melanoma | EKVX NSCLC | KM20L2 colon | SR leukemia

c1ccc(-c2nnc(-c3nsc4ccccc34)o2)cc1
> 100 µM: DMS 273 small cell lung | M19-MEL melanoma | SW-620 colon | LOX IMVI melanoma | EKVX NSCLC | LXFL 529 NSCLC | KM20L2 colon

O=C(O)C12CCCC(CCC1)C2
not listed: MDA-MB-231 breast | NCI/ADR-RES ovarian | SR leukemia | HS 578T breast | MCF7 breast | MDA-MB-435 | M19-MEL melanoma | KM20L2 colon
> 100 µM: all other assays above

From PubChem BioAssay (NCI)
